Read-outs that look alike come from different tables or passages of the source.
Assays:
[1] = test system: platelets (human platelet-rich plasma); experiment: Platelet aggregation assay (turbidimetric, platelet-rich plasma) induced by collagen, ADP or arachidonic acid; type: cell-based
Text: Antiplatelet activity may be assessed using one or more in vitro (e.g., platelet aggregation) and/or in vivo (e.g., blood clotting time) assays. Antiplatelet activity may be assessed, for example, using a light transmittance aggregometry test based on the stimulation of platelet-platelet aggregation in platelet-rich plasma after stimulation with various agonists (e.g., ADP, α Arachidonic acid, collagen etc). This test has been the most widely used technique to monitor the effects of antiplatelet agents. Agonists and their concentration may be used to produce full aggregation. Under this condition, acetogenins may inhibit aggregation induced by any agonist; their half maximal inhibitory concentration (IC50) value may vary by the agonist used. Percent aggregation inhibition values may be calculated using the following equation: % Inhibition=(Maximal aggregation vehicle control−Maximal aggregation acetogenins)/Maximal aggregation vehicle control×100%. Under a dose-dependent antiplatelet activity, IC50 may represent the concentration of acetogenins required for 50% inhibition of stimulation of platelet aggregation. […]
To confirm the contribution of the isolated acetogenin compounds to antiplatelet activity, their individual activity was evaluated at different concentrations (0.15-15 mM). Aggregation was induced by different agonists that included collagen (5 μg mL−1), ADP (20 μM) and arachidonic acid (500 μM) in an approximation to explore the potential interference of acetogenins with the binding of a particular agonist to its cell surface receptor.
The platelet aggregation (induced by ADP, collagen and arachidonic acid) inhibitory activity of the purified molecules was evaluated was conducted in accordance with the Helsinki Declaration using human blood donated to the blood bank of Instituto Nacional de Cardiología Ignacio Chávez. Blood samples were taken from healthy volunteers who had not taken any medications for at least 2 weeks, or ingested any alcohol for at least 24 h prior to sample collection. Blood was collected by venipuncture into Vacutainer (BD Diagnostics, Plymouth, UK) tubes containing 3.8% sodium citrate as an anticoagulant (at a 9:1 ratio, v/v). Platelet-rich plasma (PRP) and platelet-poor plasma (PPP) were obtained as earlier reported by A. De la Peña, G. Baños, R. Izaguirre, J. J. Mandoki and J. M. Fernández, Comparative effect of synthetic aminoestrogens with estradiol on platelet aggregation, Steroids, 1993, 58(9), 407-409. The assays were carried out within 2 h after the blood had been drawn.
Evaluation of platelet aggregation was performed by turbidimetric measurements according to S. S. Falkenberg, I. Tarnow, A. Guzman, P. Molgaard and H. T. Simonsen, Mapuche herbal medicine inhibits blood platelet aggregation, Evid. Based Complement. Alternat. Med., 2012, 2012, 647620, with some modifications. PRP adjusted with PPP to a platelet count of 2.5×108 mL^−1 (215 μL) was pre-incubated at 37° C. for 10 min with the evaluated sample (10 μL) and at various concentrations.
Platelet aggregation was initiated by the addition of 25 μL of the platelet agonist. The final concentrations of agonists in the reaction mixture were 20 μM ADP, 500 μM arachidonic acid or 5 μg mL^−1 collagen, all obtained from Chrono-PAR. Corporation (Havertown, Pa., USA). Aggregation response was recorded for 10 min using a Chrono-log Model 700 Whole Blood/Optical Lumi-Aggregometer (Chrono-Log, Havertown, Pa., USA). Maximal aggregation (MA) observed for samples containing avocado extracts, at different degrees of purification, was compared to those of vehicle controls (DMSO 2 M) evaluated under the same experimental conditions. Percent aggregation inhibitions, for all samples, were calculated using the following equation: % Inhibition=(MA vehicle control−MA extract)/MA vehicle control×100%. […]

Male adult CD1 mice [2] = experiment: Blood clotting time test in mice; type: in vivo
Description: (§1) All in vivo experiments were conducted in accordance with the Mexican National Protection Laws on Animal Protection and the General Health Law Related to Health Research (NOM-062-Z00-1999). All procedures were approved by an ethics committee. Male adult CD1 mice weighing 25-35 g were used (obtained from the Animal Care Unit from Facultad de Medicina, UNAM).
Animals were distributed among groups according to a balanced design based on body weight (3 animals per group in each experiment). Room temperature was kept constant (21-24° C.), and with light-dark cycles of 12 h. Food and water were given ad libitum. Persenone-A was dissolved in DMSO (vehicle) and administered intraperitoneally (i.p.). Control animals only received the vehicle (1.66 mL kg−1).
In a blood clotting time test groups of animals received a single i.p. administration of Persenone A (1, 10 or 100 mg kg^−1 of body weight, respectively) or vehicle. Blood clotting time was measured 24 h after administration, as described in R. Jaimez, A. Cooney, K. Jackson, A. E. Lemus, C. […] Time was counted from the instant that blood first made contact with the glass capillary tube and until the blood ceased to flow. […]
The data shown in FIG. 4 is representative of at least three independent experiments. Results were expressed as means±SEM. […]

Male adult CD1 mice [3] = experiment: Experimental thrombosis model test (surgical stasis of femoral vasculature); type: in vivo; details: 25 mg kg−1 single i.p.; thrombosis induced after 24 h
Text: Antithrombic activity may be assessed using one or more in vivo (e.g., experimental thrombosis model) assays. For example, after thrombus induction, femoral segments may be removed, fixed, and stained. These segments may be then scored by a pathologist in a double blind manner. Quantitative measurement may be obtained by computerized plannimetry, reaching a quantitative morphological description of structures at the two-dimensional level. Image analysis may be performed using ImageJ software. Minimal occlusion (0.2%) may be observed in controls arteries and test specimens may display thrombus occlusion 40% of the vascular light.
as §1, with “UNAM). […]” for “UNAM).”
Additionally, an experimental thrombosis model test was performed by subjecting mice to an acute ischemic challenge. […] 4 μm thick sections were stained with Masson's trichrome and hematoxylin-eosin, and scored by a pathologist for the percentage of thrombus induction based on the occlusion of vascular light.

[4] = Homo sapiens, Platelet, ADP 20 μM, read-out: Half-maximal inhibition concentration (IC50), ADP-induced platelet aggregation
[5] = Homo sapiens, Platelet, Arachidonic acid 500 μM, read-out: Half-maximal inhibition concentration (IC50), arachidonic acid-induced platelet aggregation
[6] = Homo sapiens, Platelet, Collagen 5 μg mL−1, read-out: Half-maximal inhibition concentration (IC50), collagen-induced platelet aggregation

| SMILES | IC50 [1, 4] [mM] | IC50 [1, 5] [mM] | IC50 [1, 6] [mM] | IC50 ([1]; Collagen 5 μg mL−1, read-out: Half-maximal inhibition concentration (IC50), collagen-induced platelet aggregation) [mM] | EC50 of blood clotting time (Male adult CD1 mice [2]; single i.p., 24 h after administration) | IC50 ([1]; Homo sapiens, Platelet, arachidonic acid-induced, read-out: IC50, arachidonic acid-induced platelet aggregation (as printed in text)) [mM] | IC50 for arachidonic acid-induced aggregation, fold lower than for ADP-induced aggregation ([1]; arachidonic acid vs ADP) [fold] | inhibitory concentration, fold higher than Persenone-C ([1]; all three agonists (collagen, ADP, arachidonic acid)) [fold] | inhibition of collagen-induced aggregation (in words) ([1]; collagen-induced) | increase in blood clotting time (Male adult CD1 mice [2]; 100 mg kg−1 single i.p., measured 24 h after administration, relative to vehicle) [fold] | decrease in luminal occlusion compared to the stasis group (Male adult CD1 mice [3]) [%] | inhibition at 15000 µM ([1]; Homo sapiens, Platelet, 15 mM, arachidonic acid, read-out: inhibition of arachidonic acid-induced platelet aggregation at the highest concentration) [%] | inhibition of platelet aggregation (in words) ([1]; any of the evaluated concentrations (0.15-15 mM)) |
| --- | --- | --- | --- | --- | --- | --- | --- | --- | --- | --- | --- | --- | --- |
| C=CCCCCCCCCCCC[C@H](O)C[C@H](O)COC(C)=O [Acetogenin 1, (2S,4S)-1-acetoxy-2,4-dihydroxy-n-heptadeca-16-ene] | 7.29 ± 1.21 | 13.4 ± 1.26 | 8.18 | – | – | – | – | > 1.5 | – | – | – | – | – |
| C=C/C=C/CCCCCCCCCCCC(=O)CC(O)COC(C)=O (stereo not shown) [Acetogenin 2, Persediene] | > 15 | > 15 | 12 ± 1.24 | – | – | – | – | – | inhibited collagen-induced aggregation | – | – | – | – |
| CC(=O)Oc1ccccc1C(=O)O [Aspirin, acetylysalicylic acid, reference compound] | 3.65 ± 0.07 | 0.07 ± 0.01 | 0.38 ± 0.07 | – | – | 0.07 ± 0.01 | 50 | – | – | – | – | – | – |

Second part, led by results:

| IC50 [1, 4] [mM] | IC50 [1, 5] [mM] | IC50 [1, 6] [mM] | IC50 ([1]; Collagen 5 μg mL−1, read-out: Half-maximal inhibition concentration (IC50), collagen-induced platelet aggregation) [mM] | EC50 of blood clotting time (Male adult CD1 mice [2]; single i.p., 24 h after administration) | IC50 ([1]; Homo sapiens, Platelet, arachidonic acid-induced, read-out: IC50, arachidonic acid-induced platelet aggregation (as printed in text)) [mM] | IC50 for arachidonic acid-induced aggregation, fold lower than for ADP-induced aggregation ([1]; arachidonic acid vs ADP) [fold] | SMILES | inhibitory concentration, fold higher than Persenone-C ([1]; all three agonists (collagen, ADP, arachidonic acid)) [fold] | inhibition of collagen-induced aggregation (in words) ([1]; collagen-induced) | increase in blood clotting time (Male adult CD1 mice [2]; 100 mg kg−1 single i.p., measured 24 h after administration, relative to vehicle) [fold] | decrease in luminal occlusion compared to the stasis group (Male adult CD1 mice [3]) [%] | inhibition at 15000 µM ([1]; Homo sapiens, Platelet, 15 mM, arachidonic acid, read-out: inhibition of arachidonic acid-induced platelet aggregation at the highest concentration) [%] | inhibition of platelet aggregation (in words) ([1]; any of the evaluated concentrations (0.15-15 mM)) |
| --- | --- | --- | --- | --- | --- | --- | --- | --- | --- | --- | --- | --- | --- |
| 5.22 ± 1.19 | 7.4 ± 1.2 | 3.42 ± 1.56 | 5.23 ± 1.19 | – | – | – | CC/C=C/CCCCCCCCC/C=C/C(=O)CC(O)COC(C)=O (stereo not shown) [Acetogenin 3, Persenone-C] | – | – | – | – | – | – |
| 13.5 ± 1.41 | > 15 | 8.73 ± 1.25 | – | 24.8±1.7 mg kg^−1 of body weight | – | – | CCCCC/C=C\C/C=C\CCCCC/C=C/C(=O)CC(O)COC(C)=O (stereo not shown) [Acetogenin 4, Persenone-A] | – | – | 2 | 71 | < 50 | – |
| > 15 | > 15 | > 15 | – | – | – | – | CCCCC/C=C\C/C=C\CCCCCCCC(=O)CC(O)COC(C)=O (stereo not shown) [Acetogenin 6, Persin] | – | – | – | – | – | did not inhibit platelet aggregation |
